{"source": "patent US7169813B2", "about": "“4-oxo-fenretinide, administered alone and in combination with fenretinide, as preventive and therapeutic agent for cancer” (Fondazione IRCCS “Istituto Nazionale Dei Tumori”, priority 2004, dated 2007)", "key": {"[1]": {"test_system": "MCF-7", "test": "Growth inhibition (sulforhodamine B assay), single agents and combination", "format": "cell-based, human", "conditions": "for IC50: Homo sapiens, read-out: 50% Inhibitory Concentrations (IC50) at 72 h; for Survival (% control cells): single agent 1 μM", "experimental": "(§1) The following human breast tumor cell lines, obtained from Dr. R. Sutherland (Garvan Institute, Sydney, Australia) were tested: T-47D, BT-20 and MCF-7. The following human neuroblastoma cell lines, purchased from ATCC, were tested: SK-N-BE, SK-N-SH, SK-N-MC, and GI-LI-N. All cell lines were grown in monolayer, in medium containing 10% fetal bovine serum (Invitrogen) in 5% CO2 at 37° C. The medium for A2780, A2780/HPR, IGROV-1, OVCA432, SKOV-3, T-47D, BT-20, MCF-7, GI-LI-N and SK-N-BE cells was RPMI 1640 (Cambrex, Verviers, Belgium) and the medium for OAW42, SK-N-MC and SK-N-SH cells was EMEM (ATCC).\n(§2) For the growth inhibition assays, cells were seeded at a density of 3500 cells per well in 96 cluster tissue culture plates, and treated 24 hr after seeding with different concentrations of 4-oxo-4-HPR or 4-HPR. 4-oxo-4-HPR was dissolved in absolute ethanol and 4-HPR (obtained from Dr. J. A. Crowell —NCI Bethesda, Md., USA) was dissolved in Me2SO. […] Control cultures received the same amount of ethanol or Me2SO as the treated cultures. 72 hr after treatment cell number was estimated by using the sulforhodamine B assay according to Monks et al., (J. Natl. Cancer, 1991, 11: 757–766). The survival of treated cells was calculated for the various drug concentrations as percentage of the survival of control cells. The antiproliferative activity of 4-oxo-4-HPR and 4-HPR in each cell line, was tested in three separate experiments and the average values ±SD are reported in FIGS. 2, 3, and 4.\n(§3) The antiproliferative effect of the combination of the two drugs, administered at one single dose, was also tested in other ovarian carcinoma cell lines and in breast tumor cell lines. The type of interaction between 4-HPR and 4-oxo-4-HPR was assessed by the method of Drevinko et al., as described in Cancer Biochem. Biophys., 1976, 1:187–195. For this evaluation the drugs were assumed to provide independent effects. The combination index (CI) was calculated as follows: survival fraction (SF) of the combination of 4-HPR+4-oxo-4-HPR divided by (SF 4-HPR×SF 4-oxo-4-HPR). The results for CI are defined as follows: CI=1 indicates an additive effect, CI<1 indicates a supra-additive effect and CI>1 indicates a sub-additive effect."}, "[2]": {"test_system": "BT-20", "test": "Growth inhibition (sulforhodamine B assay), single agents and combination", "format": "cell-based, human", "experimental": "as §1, §2, §3"}, "[3]": {"test_system": "IGROV-1", "test": "Growth inhibition (sulforhodamine B assay), single agents and combination", "format": "cell-based, human", "experimental": "(§4) The following human ovarian carcinoma cell lines were tested: A2780 was obtained from Dr. R. F. Ozols (National Cancer Institute, Bethesda, Md., USA); IGROV-1 was obtained from Dr. J. Benard (Villejuif, France); OVCA432 was obtained from Dr. R. C. Knapp (Boston, Mass., USA); OAW42 and SKOV-3 were purchased from ATCC (Rockville, Md., USA). A2780/HPR, a 4-HPR— resistant ovarian carcinoma cell line, was obtained in our laboratory by continuous exposure of A2780 cells to increasing concentrations of 4-EPR as previously described (Appierto et al., Br. J. Cancer, 2001, 84:1528–1534; Prinetti et al., J. Biol. Chem., 2003, 278:5574–5583). Briefly, cells surviving 60 transplants in 4-HPR —containing medium (3 transplants at 1 μM, 11 transplants at 2 μM, 8 transplants at 3 μM, and 38 transplants at 5 μM) were cloned by limiting dilution. […] Therefore, A2780/HPR cells were continuously maintained in 5 μM 4-HPR and seeded without 4-HPR in all the experiments performed to test their sensitivity to 4-oxo-4-HPR.\nas §1, §2, §3"}, "[4]": {"test_system": "OVCA432", "test": "Growth inhibition (sulforhodamine B assay), single agents and combination", "format": "cell-based, human", "experimental": "as §4, §1, §2, §3"}, "[5]": {"test_system": "A2780/HPR", "test": "Growth inhibition (sulforhodamine B assay), single agents and combination", "format": "cell-based, human", "conditions": "for Survival (% control cells): single experiments", "experimental": "as §4, §1, §2, §3"}, "[6]": {"test_system": "plasma retinol levels", "test": "Effects on plasma retinol in mice", "format": "in vivo", "conditions": "mice i.p. 120 mg/kg for 4 days; for Retinol % reduction: plasma, baseline vs 5 h after last treatment, control 22", "experimental": "One of the main side effects of 4-HPR, is diminished dark adaptation or nyctalopia (Formelli et al., FASEB J., 1996, 10:1014–1024) which is caused by a decrease in plasma retinol levels (Formelli et al., Cancer Res., 49:6149–6152). The influence of 4-oxo-4-HPR on plasma retinol levels was assessed in mice and was compared with the effects caused by 4-HPR. Animal studies were approved by the Ethics Committee for Animal Experimentation of Istituto Nazionale Tumori (Milan Italy) and were carried out according to national and international guidelines (Italian Governing Law, Legislative decree 116, Jan. 27, 1992 and UKCCCR guidelines for the welfare of animals in experimental neoplasia. Br. J. Cancer 1988, 58:109–113). Female Swiss nude mice (7–9 weeks old) were supplied by Charles River (Calco, Italy) and kept in laminar air-flow rooms in sterilised cages, with bedding, food and acidified water. 4-HPR was obtained from Dr. J. A. Crowell —NCI Bethesda, Md., USA. 4-oxo-4-HPR and 4-HPR were dissolved in absolute ethanol and then diluted in a sterile 0.9% (w/v) NaCl solution containing 1,65 mg/ml bovine serum albumin (Sigma, St Louis, Mo., USA) at a final ethanol concentration of 10% (v/v). The drug solutions were freshly prepared once a week, protected from light and kept at 4° C. Mice were treated i.p. with 120 mg/kg of 4-oxo-4-HPR or 4-HPR for 4 days. The two drugs were delivered at a volume of 10 ml/kg of body weight. Control mice were treated with the same solvent of 4-oxo-4HPR and 4-HPR. Three mice per group were used. Blood samples, for drug and retinol measurements, were drawn from the retroorbital plexus of anesthetized mice before and 5 hr after the last treatment, collected into heparinized tubes and wrapped in aluminium foil in order to protect them from light. Retinol and drug concentrations in plasma were assayed by HPLC as previously described (Formelli et al., Cancer Res. 1989, 49:6149–6152) and as above reported (see Exemple 1) and are reported in Table 3."}, "[7]": {"test_system": "SW626", "test": "Antiproliferative effect, single agents and combination", "format": "cell-based, human", "conditions": "single agent 1 μM, 72 h, single experiments", "experimental": "as §2\nas §3, with “For this evaluation the drugs were assumed to provide independent effects.” left out, “The results for CI are defined as follows: CI=1 indicates an additive effect, CI<1 indicates a supra-additive effect and CI>1 indicates a sub-additive effect.” left out"}, "[8]": {"conditions": "IGROV-1; single agent 1 μM; 72 h; single experiments"}, "[9]": {"conditions": "OVCA432; single agent 1 μM; 72 h; single experiments"}}, "note": "“And” between values parts separate entries of the source, which are not always exact repeats. Equal entries are not always repeated. Where two headings read alike, the source gives them in different places."}
{"molecule": "CC1=C(/C=C/C(C)=C/C=C/C(C)=C/C(=O)Nc2ccc(O)cc2)C(C)(C)CCC1=O", "note": "[4-oxo-4-HPR, 4-oxo-N-(4-hydroxyphenyl)retinamide]", "values": [{"measurement": "IC50", "setting": "[1]; MCF7, 72 h", "value": 1500, "unit": "nM"}, {"measurement": "tumor cell survival (FIG. 3), compared with 4-HPR, in words", "setting": "[1]; MCF-7, 72 hr", "value": "more potent than 4-HPR"}, {"measurement": "Survival (% control cells)", "setting": "[1]; MCF-7, 72 h", "value": 56, "unit": "% control cells"}, {"measurement": "tumor cell survival (FIG. 3), compared with 4-HPR, in words", "setting": "[2]; BT-20; 72 hr", "value": "more potent than 4-HPR"}, {"measurement": "Survival (% control cells)", "setting": "[2]; BT-20; single agent 1 μM; 72 h", "value": 70, "unit": "% control cells"}, {"measurement": "IC50", "setting": "[2]; Homo sapiens, BT-20, 72 h, read-out: 50% Inhibitory Concentrations (IC50) at 72 h", "value": 2000, "unit": "nM"}, {"measurement": "IC50", "setting": "[3]; Homo sapiens, IGROV-1, 72 h, read-out: 50% Inhibitory Concentrations (IC50) at 72 h", "value": 2000, "unit": "nM"}, {"measurement": "Survival (% control cells)", "setting": "[3]; [8]", "value": "96 % control cells and 76 % control cells"}, {"measurement": "IC50", "setting": "[4]; Homo sapiens, OVCA432, 72 h, read-out: 50% Inhibitory Concentrations (IC50) at 72 h", "value": 2500, "unit": "nM"}, {"measurement": "Survival (% control cells)", "setting": "[4]; [9]", "value": "98 % control cells and 102 % control cells"}, {"measurement": "Survival (% control cells)", "setting": "[5]; A2780/HPR, 4-oxo-4-HPR 0.3 μM, 72 h", "value": "96 % control cells and 84 % control cells and 71 % control cells"}, {"measurement": "tumor cell survival (FIG. 2), in words", "setting": "[5]; A2780/HPR, 72 hr, 0.3 to 10 μM", "value": "highly effective"}, {"measurement": "reduction of plasma retinol levels, in words", "setting": "[6]", "value": "reduction only slightly higher than observed in control mice"}, {"measurement": "Retinol % reduction", "setting": "[6]", "value": 38, "unit": "%"}, {"measurement": "Survival (% control cells)", "setting": "[7]", "value": "90 % control cells and 98 % control cells"}]}
{"molecule": "CC1=C(/C=C/C(C)=C/C=C/C(C)=C/C(=O)Nc2ccc(O)cc2)C(C)(C)CCC1", "note": "[4-HPR, N-(4-hydroxyphenyl)retinamide, reference compound]", "values": [{"measurement": "IC50", "setting": "[1]; MCF7, MCF-7, 72 h", "value": 3000, "unit": "nM"}, {"measurement": "Survival (% control cells)", "setting": "[1]; MCF-7, 72 h", "value": 86, "unit": "% control cells"}, {"measurement": "Survival (% control cells)", "setting": "[2]; BT-20; single agent 1 μM; 72 h", "value": 89, "unit": "% control cells"}, {"measurement": "IC50", "setting": "[2]; Homo sapiens; BT-20; 72 h; read-out: 50% Inhibitory Concentrations (IC50) at 72 h", "value": 7000, "unit": "nM"}, {"measurement": "IC50", "setting": "[3]; Homo sapiens; IGROV-1; 72 h; read-out: 50% Inhibitory Concentrations (IC50) at 72 h", "value": 5000, "unit": "nM"}, {"measurement": "Survival (% control cells)", "setting": "[3]; [8]", "value": "97 % control cells and 91 % control cells"}, {"measurement": "IC50", "setting": "[4]; Homo sapiens; OVCA432; 72 h; read-out: 50% Inhibitory Concentrations (IC50) at 72 h", "value": 8000, "unit": "nM"}, {"measurement": "Survival (% control cells)", "setting": "[4]; [9]", "value": "115 % control cells and 105 % control cells"}, {"measurement": "Survival (% control cells)", "setting": "[5]; A2780/HPR, 4-HPR 5 μM, 72 h", "value": "81 % control cells and 89 % control cells"}, {"measurement": "IC50", "setting": "[5]; Homo sapiens, A2780/HPR (4-HPR-resistant), 72 h, read-out: 50% Inhibitory Concentrations (IC50) at 72 h", "value": 8000, "unit": "nM"}, {"measurement": "Retinol % reduction", "setting": "[6]", "value": 56, "unit": "%"}, {"measurement": "Survival (% control cells)", "setting": "[7]", "value": "96 % control cells and 98 % control cells"}]}
